From US5175162A, “Thiophene compounds and their pharmaceutical uses” (Yoshitiomi Pharmaceutical Industries Ltd., priority 1989, dated 1992)

Tests used:
[1] = Anti-bicuculline action; type: in vivo, male ddY mice; settings: Mus musculus; (+) bicuculline 0.6 mg/kg i.v. 1 hour after oral administration; prevention of tonic extention; read-out: Antibicuculline effect ED50
Method: The anti-bicuculline action of the test compounds was done according to the method reported in Life Science, vol. 21, 1779 (1977).
The test was carried out using groups of 7-14 male ddY mice weighing 20-25 g. The animals were challenged with (+) bicuculline (0.6 mg/kg i.v.) 1 hour after the oral administration of the test compounds. The ED50 values were calculated by the probit method as the dose which prevent the tonic extention in half of the animals.

[2] = Effects on seizure induced by maximal electroshock (anti-MES action); type: in vivo, male ddY mice; settings: 1 hour before MES
Method: The test was carried out using groups of five male ddY mice. The animals were challenged with a maximal electroshock (MES, AC 2000 V, 12.5 mA, 0.2 sec) delivered through bilatesal corneal electrodes 1 hour after the oral or intraperitoneal administration of the test compounds. Antagonism of MES-induced seizure was defined as the absence of the tonic extention.

[3] = biological target: benzodiazepine receptors; assay: 3H-diazepam (3H-DZP) binding assay, displacement at benzodiazepine receptors; parameters: species or system Wistar rats (cerebral cortex); settings: tritiated diazepam 2 nM, 0° C., 20 min; read-out: Affinity for BZP receptors Ki
Method: ^3 H-DZP binding assay was carried out according to the previously described method in Life Science, vol. 20, 2101 (1977).
The crude cynaptosomal fraction prepared from the cerebral cortex of Wistar rats aged 9-10 weeks was suspended in 50 mM Tris-hydrochloric acid buffer (pH 7.4) containing 120 mM sodium chloride and 5 mM potassium chloride. These suspensions were used for the following experiment.
The reaction was started by the addition of synaptosomal suspension to the solution containing tritiated diazepam (final concentration is 2 nM) and a known concentration of test compounds at 0° C. for 20 min. The binding was stopped by the filtration under vacuum through Whatman GF/B filters and the filters were immediately washed with the above-mentioned buffer. The radioactivity on the filters was measured by a liquid scintillation counter.
The binding affinities of the compound of the present invention for benzodiazepine receptors are evaluated from its displacement ability for tritiated diazepam at its binding site, which is represented as Ki value (nM).

[4] = test system: benzodiazepine receptors; settings: U.S. Pat. No. 4,849,421; cited from earlier work
[5] = Antianxiety effect (Vogel type conflict test); type: in vivo, Wistar rats; settings: Rattus norvegicus, po; orally 1 hr before test; P<0.05 vs 0.5% MC control; read-out: Antianxiety effect MED (minimum effective dose)
Text: The experimental procedure used modified the method of Vogel et al (1971). Wistar rats were used. They were deprived of water for 72 hr before the test. The rats were placed in a plexiglas conflict test box (light compartment: 38×38×20 cm, dark compartment: 10×10×20 cm). A water bottle with a stainless steel spout was fitted to the middle of the outside, so that the spout extended 3 cm into the box at a height of 10 cm above the grid floor. A drinkometer circuit (Ohara Inc., Nihon Koden) was connected with the spout and the number of licks were counted. The rat was placed into the apparatus where an electric shock (0.2-0.3 mA, 0.3 sec) was given once every 20th lick. After the rat received the first electric shock, the number of shocks were recorded during the subsequent 3 min test period. The test compounds were administered orally 1 hr before the test. The minimum effective dose (MED) was defined as the lowest dose producing a statistically significant difference between 0.5% MC-treated (control) and test drug treated punished responses (One-way ANOVA test; P<0.05).

Structure (SMILES) | ED50 [1] [mg/kg] | Inhibitory rate (anti-MES) ([2]; 30 mg/kg i.p.) [%] | Ki [3] [nM] | other results
CCc1cc2c(s1)[S+]([O-])CCc1cc(=O)n(-c3ccc(Cl)cc3)nc1-2 (centres unmarked) [Example 25, 2-(4-chlorophenyl)-9-ethyl-5,6-dihydrothieno[2',3':2,3]thiepino[4,5-c]pyridazin-3(2H)-one 7-oxide] | 0.66 | 80 | 1.4 | 
O=c1cc2c(nn1-c1ccc(Cl)cc1)-c1ccccc1SCC2 [2-(4-chlorophenyl)-5,6-dihydro[1]benzothiepino[5,4-c]pyridazin-3(2H)-one] |  |  |  | activity against BZP receptors [4]: partial agonistic activity
O=c1cc2c(nn1-c1ccc(Cl)cc1)-c1cc(Br)sc1[S+]([O-])CC2 (centres unmarked) [Example 26, 9-bromo-2-(4-chlorophenyl)-5,6-dihydrothieno[2',3':2,3]thiepino[4,5-c]pyridazin-3(2H)-one 7-oxide] | 0.56 |  | 1.4 | 
CCc1cc2c(s1)S(=O)(=O)CCc1cc(=O)n(-c3ccc(OC)cc3)nc1-2 [Example 64, 9-Ethyl-2-(4-methoxyphenyl)-5,6-dihydrothieno[2',3':2,3]thiepino[4,5-c]pyridazin-3(2H)-one 7,7-dioxide] | 1.4 |  | 0.44 | 
CC(O)c1cc2c(s1)S(=O)(=O)CCc1cc(=O)n(-c3ccc(Cl)cc3)nc1-2 (centres unmarked) [Example 50, 2-(4-chlorophenyl)-9-(1-hydroxyethyl)-5,6-dihydrothieno[2',3':2,3]thiepino[4,5-c]pyridazin-3(2H)-one 7,7-dioxide] | 0.87 |  | 0.97 | 
O=c1cc2c(nn1-c1ccc(Cl)cc1)-c1cc(Br)sc1S(=O)(=O)CC2 [Example 65, 9-Bromo-2-(4-chlorophenyl)-5,6-dihydrothieno[2',3':2,3]thiepino[4,5-c]pyridazin-3(2H)-one 7,7-dioxide] | 1.4 |  | 0.12 | 
CCCc1cc2c(s1)[S+]([O-])CCc1cc(=O)n(-c3ccc(Cl)cc3)nc1-2 (centres unmarked) [Example 70, 2-(4-Chlorophenyl)-9-propyl-5,6-dihydrothienol[2',3':2,3]thiepino[4,5-c]pyridazin-3(2H)-one 7-oxide] | 0.62 |  | 0.62 | 
CCCc1cc2c(s1)SCCc1cc(=O)n(-c3ccc(Cl)cc3)nc1-2 [Example 69, 2-(4-Chlorophenyl)-9-propyl-5,6-dihydrothieno[2',3':2,3]thiepino[4,5-c]pyridazin-3(2H)-one] |  | 80 |  | 
CCc1cc2c(s1)S(=O)(=O)CCc1cc(=O)n(-c3ccc(Cl)cc3)nc1-2 [Example 28, 2-(4-Chlorophenyl)-9-ethyl-5,6-dihydrothieno[2',3':2,3]thiepino[4,5-c]pyridazin-3(2H)-one 7,7-dioxide] | 0.23 |  | 0.63 | minimal effective dose [5]: 2.5 mg/kg
CCCc1cc2c(s1)S(=O)(=O)CCc1cc(=O)n(-c3ccc(Cl)cc3)nc1-2 [Example 71, 2-(4-Chlorophenyl)-9-propyl-5,6-dihydrothieno[2',3':2,3]thiepino[4,5-c]pyridazin-3(2H)-one 7,7-dioxide] |  | 100 |  | 
O=C1CC2CCSc3sccc3C2=NN1c1ccc(Cl)cc1 (centres unmarked) [Example 14] |  | 100 |  | Inhibitory rate (anti-MES) ([2]; 30 mg/kg p.o.): 40%; Inhibitory rate (anti-MES) ([2]; 100 mg/kg p.o.): 100%
CCc1cc2c(s1)SCCc1cc(=O)n(-c3ccc(OC)cc3)nc1-2 [Example 58, 9-ethyl-2-(4-methoxyphenyl)-5,6-dihydrothieno[2',3':2,3]thiepino[4,5-c]pyridazin-3(2H)-one] | 0.4 |  | 0.56 | 
CCc1cc2c(s1)SCCc1cc(=O)n(-c3ccc(Cl)cc3)nc1-2 [Example 22, 2-(4-chlorophenyl)-9-ethyl-5,6-dihydrothieno[2',3':2,3]thiepino[4,5-c]pyridazin-3(2H)-one] | 0.49 |  | 1.8 | 
